Reference: publication PMC6151529, “Design, Synthesis and Biological Evaluation of N,N-Substituted Amine Derivatives as Cholesteryl Ester Transfer Protein Inhibitors” (Molecules : A Journal of Synthetic Chemistry and Natural …, 2017)
Values belong to the molecule of their own block, whether it stands above or below them.

Tests used:
[1] = system: LDL-C levels; details: clinical, cited from earlier work
[2] = system: HDL-C levels; details: clinical, cited from earlier work
[3] = Metabolic stability in human liver microsomes; format: in vitro ADME; details: 37 °C, NADPH, 0-60 min, read-out: HLM Stability (human liver microsomal intrinsic clearance)
Protocol: (§1) Ten μL (100 μM/L) of compound and 80 μL liver microsomes were mixture and incubated at 37 °C for 10 min, and then 10 μL NADPH regenerating system was added. Samples were obtained at 0 min, 5 min, 10 min, 20 min, 30 min and 60 min respectively, and 300 μL stop solution (cold in 4 °C, including 100 ng/mL tolbutamide and 100 ng/mL labetalol) was added to terminate the reaction. After oscillating for 10 min, the plates were centrifuged (4000 rpm) at room temperature for 20 min, and the supernatants were used for analyzation.

[4] = molecular target: T1, CYP2D6 (Homo sapiens, UniProt P10635); experiment: Cytochrome P450 inhibition assay, CYP2D6; format: in vitro ADME; details: 10 μM compound, human liver microsomes 0.25 mg/mL, substrate dextromethorphan
T1 construct: from tissue; host or cells: human liver microsomes
Protocol: (§2) Five specific probe substrates (CYP3A4, 2 μM midazolam; CYP2D6, 5 μM dextromethorphan; CYP2C9, 5 μM diclofenac; CYP1A2, 10 μM phenacetin; CYP2C19, 30 μM S-mephenytoin) were used to evaluated cytochrome P450 inhibition in human liver microsomes (0.25 mg/mL). A mixture of 20 μL specific probe substrate solution and 20 μL buffer solution (100 mM K3PO4, 33 mM MgCl2, pH = 7.4) was added compound (2 μL) and 158 μL human liver microsomes solution (0.25 mg/mL). The mixture were incubated at 37 °C for 10 min and another 10 min underwent after 20 μL NADPH solution added. Consecutively, 400 µL cold stop solution (200 ng/mL tolbutamide and 200 ng/mL labetalol in acetonitrile) was added to terminated the reaction. After the reactions were terminated, The plates were centrifuged (4000 rpm) at room temperature for 20 min, and the supernatants were analysed by LC/MS/MS.

[5] = molecular target: T2, CYP3A4 (Homo sapiens, UniProt P08684); experiment: Cytochrome P450 inhibition assay, CYP3A4; format: in vitro ADME; details: human liver microsomes, pH 7.4, probe midazolam (2 μM), 10 μM compound, human liver microsomes 0.25 mg/mL, substrate midazolam, read-out: CYPs Direct Inhibition Mean (10 μM) 3A4
T2 construct: from tissue; host or cells: human liver microsomes
Protocol: as §2

[6] = molecular target: T3, CETP (Homo sapiens, UniProt P11597); experiment: CETP inhibitory activity, BODIPY-CE fluorescence assay (CETP RP Activity Assay Kit); format: biochemical; details: for IC50: read-out: IC50 (CETP inhibition); for CETP inhibition (in words): BODIPY-CE fluorescence assay
T3 construct: purchased Roar, New York, NY, USA RB-RPAK
T3 sequence (P11597 18-493): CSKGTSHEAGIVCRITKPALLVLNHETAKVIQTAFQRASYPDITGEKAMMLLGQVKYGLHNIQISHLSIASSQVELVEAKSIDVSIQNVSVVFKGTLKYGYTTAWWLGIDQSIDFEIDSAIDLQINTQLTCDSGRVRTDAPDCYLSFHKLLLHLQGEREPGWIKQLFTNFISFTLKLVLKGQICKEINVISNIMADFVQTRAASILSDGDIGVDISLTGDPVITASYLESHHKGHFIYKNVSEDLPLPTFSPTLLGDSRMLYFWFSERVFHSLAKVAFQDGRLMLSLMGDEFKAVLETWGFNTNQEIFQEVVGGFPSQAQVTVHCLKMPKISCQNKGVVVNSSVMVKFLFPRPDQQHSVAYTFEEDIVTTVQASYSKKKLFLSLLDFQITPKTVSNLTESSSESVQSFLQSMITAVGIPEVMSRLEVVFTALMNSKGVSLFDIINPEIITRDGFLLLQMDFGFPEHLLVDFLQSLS
Protocol: All tested compounds were dissolved in 100% DMSO, making sure the compound was dissolved totally. The solution was vibrated hard on an oscillator for more than 30 s and then stored in a nitrogen cabinet. The stock solutions (10 mM) were diluted with DMSO for an 8-point titration (1:5 serial dilutions) in a 96-well dilution plate. […] Compounds were tested at eight concentrations, and the fluorescence intensity were measured using a fluorometer (ExEm = 465/535 nm). The IC50 was determined from a curve fit of the data with each concentration tested three times.

[7] = Metabolic stability in rat liver microsomes; format: in vitro ADME; details: 37 °C, NADPH, 0-60 min, read-out: RLM Stability (rat liver microsomal intrinsic clearance)
Protocol: as §1

[8] = molecular target: T4, CYP1A2 (Homo sapiens, UniProt P05177); experiment: Cytochrome P450 inhibition assay, CYP1A2; format: in vitro ADME; details: 10 μM compound, human liver microsomes 0.25 mg/mL, substrate phenacetin
T4 construct: from tissue; host or cells: human liver microsomes
T4 sequence (P05177 1-516): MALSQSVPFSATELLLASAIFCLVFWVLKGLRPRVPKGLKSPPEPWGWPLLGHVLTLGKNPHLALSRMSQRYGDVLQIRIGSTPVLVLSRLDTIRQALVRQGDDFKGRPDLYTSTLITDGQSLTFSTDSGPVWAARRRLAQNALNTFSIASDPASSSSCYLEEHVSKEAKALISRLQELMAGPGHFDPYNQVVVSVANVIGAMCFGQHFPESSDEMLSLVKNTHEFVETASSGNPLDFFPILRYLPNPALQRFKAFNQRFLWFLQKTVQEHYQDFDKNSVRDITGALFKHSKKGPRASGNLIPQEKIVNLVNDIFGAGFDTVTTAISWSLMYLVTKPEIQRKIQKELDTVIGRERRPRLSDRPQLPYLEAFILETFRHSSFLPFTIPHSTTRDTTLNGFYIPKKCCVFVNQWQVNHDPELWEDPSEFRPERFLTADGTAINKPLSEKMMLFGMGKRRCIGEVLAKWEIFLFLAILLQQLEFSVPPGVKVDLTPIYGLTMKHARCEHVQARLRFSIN
Protocol: as §2

[9] = molecular target: T5, CYP2C9 (Homo sapiens, UniProt P11712); experiment: Cytochrome P450 inhibition assay, CYP2C9; format: in vitro ADME; details: human liver microsomes, pH 7.4, probe diclofenac (5 μM), 10 μM compound, human liver microsomes 0.25 mg/mL, substrate diclofenac, read-out: CYPs Direct Inhibition Mean (10 μM) 2C9
T5 construct: from tissue; host or cells: human liver microsomes
Protocol: as §2

T1 sequence (P10635 whole entry): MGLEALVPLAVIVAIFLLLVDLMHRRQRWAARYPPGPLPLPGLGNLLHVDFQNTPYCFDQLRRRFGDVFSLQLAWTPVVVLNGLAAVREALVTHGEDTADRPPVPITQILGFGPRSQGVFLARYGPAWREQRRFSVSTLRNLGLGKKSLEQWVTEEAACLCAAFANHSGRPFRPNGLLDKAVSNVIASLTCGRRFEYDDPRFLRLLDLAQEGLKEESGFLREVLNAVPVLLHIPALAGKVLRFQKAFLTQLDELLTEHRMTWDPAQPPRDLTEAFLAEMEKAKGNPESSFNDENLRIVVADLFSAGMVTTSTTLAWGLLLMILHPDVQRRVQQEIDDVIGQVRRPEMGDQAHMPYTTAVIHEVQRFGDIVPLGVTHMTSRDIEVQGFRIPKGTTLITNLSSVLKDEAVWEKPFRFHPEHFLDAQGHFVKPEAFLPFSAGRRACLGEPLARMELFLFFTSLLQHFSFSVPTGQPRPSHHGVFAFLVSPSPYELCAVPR
T5 sequence (P11712 whole entry): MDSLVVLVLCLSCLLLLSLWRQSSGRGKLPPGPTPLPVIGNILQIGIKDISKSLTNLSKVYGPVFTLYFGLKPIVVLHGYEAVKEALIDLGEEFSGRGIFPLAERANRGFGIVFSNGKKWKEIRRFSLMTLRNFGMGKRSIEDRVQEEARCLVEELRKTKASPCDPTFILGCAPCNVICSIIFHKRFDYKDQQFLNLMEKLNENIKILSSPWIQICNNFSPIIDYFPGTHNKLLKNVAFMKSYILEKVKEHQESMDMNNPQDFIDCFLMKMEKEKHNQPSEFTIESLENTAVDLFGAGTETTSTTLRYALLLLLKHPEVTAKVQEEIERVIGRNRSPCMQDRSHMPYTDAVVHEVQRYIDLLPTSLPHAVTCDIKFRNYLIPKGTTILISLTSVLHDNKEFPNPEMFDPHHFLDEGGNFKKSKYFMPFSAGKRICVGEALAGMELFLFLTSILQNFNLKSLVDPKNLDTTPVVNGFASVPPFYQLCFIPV
T2 sequence (P08684 whole entry): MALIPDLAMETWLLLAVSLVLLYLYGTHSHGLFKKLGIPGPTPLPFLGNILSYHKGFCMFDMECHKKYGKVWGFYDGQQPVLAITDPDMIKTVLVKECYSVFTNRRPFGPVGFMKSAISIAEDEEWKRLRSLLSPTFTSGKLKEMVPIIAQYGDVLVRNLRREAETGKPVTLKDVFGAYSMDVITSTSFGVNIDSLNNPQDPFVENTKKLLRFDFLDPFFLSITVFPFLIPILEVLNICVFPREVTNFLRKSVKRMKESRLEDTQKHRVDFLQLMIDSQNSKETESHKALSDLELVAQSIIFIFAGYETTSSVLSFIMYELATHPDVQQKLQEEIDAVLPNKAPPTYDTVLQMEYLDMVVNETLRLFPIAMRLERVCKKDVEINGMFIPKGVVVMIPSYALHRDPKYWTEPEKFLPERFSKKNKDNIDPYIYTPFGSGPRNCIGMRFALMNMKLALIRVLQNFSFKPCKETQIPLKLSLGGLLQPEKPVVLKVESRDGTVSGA

SMILES: COc1cc(F)c(C(C)C)cc1-c1ccc(C(F)(F)F)cc1CN1C(=O)O[C@H](c2cc(C(F)(F)F)cc(C(F)(F)F)c2)[C@@H]1C [Anacetrapib]
- decrease of LDL-C levels ([1]; printed as 'to'): 40%
- raise of HDL-C levels ([2]; printed as 'to'): 130%

- microsomal CLint at 10 μM [3]: 119 µL/min/mg
- CYPs Direct Inhibition Mean (10 μM) 2D6 [4]: No inhibition
- inhibition at 10 min, 10 µM ([4]; pH 7.4, probe dextromethorphan (5 μM), read-out: CYPs Direct Inhibition Mean (10 μM) 2D6): < 20%
- inhibition at 10 min, 10 µM [5]: < 20%
- activity weaker than the reference compound (fold) ([6]; IC50 versus reference compound anacetrapib): 10 fold
- IC50 [6]: 0.38 ± 0.08 µM
- microsomal CLint at 10 μM [7]: 146 µL/min/mg
- CYPs Direct Inhibition Mean (10 μM) 1A2 [8]: No inhibition
- inhibition at 10 min, 10 µM ([8]; pH 7.4, probe phenacetin (10 μM), read-out: CYPs Direct Inhibition Mean (10 μM) 1A2): < 20%
- inhibition at 10 min, 10 µM [9]: < 20%
SMILES: COc1ccc(C(C)C)cc1C1=C(CN(Cc2cc(C(F)(F)F)cc(C(F)(F)F)c2)c2nnn(CC(=O)O)n2)CC(C)(C)CC1 [Compound 17, N-(3,5-Bis(trifluoromethyl)benzyl)-N-((2-(5-isopropyl-2-methoxyphenyl)-5,5-dimethylcyclohex-1-enyl)-methyl)-2H-tetrazol-5-amine-2-acetic acid]

- IC50 [6]: > 50 µM
SMILES: COc1ccc(C(C)C)cc1C1=C(CN(Cc2cc(C(F)(F)F)cc(C(F)(F)F)c2)C2CCN(CC(=O)O)CC2)CC(C)(C)CC1 [Compound 33, N-(3,5-Bis(trifluoromethyl)benzyl)-N-((2-(5-isopropyl-2-methoxyphenyl)-5,5-dimethylcyclohex-1-enyl)-methyl)piperidin-4-amine-1-acetic acid]

- IC50 [6]: > 50 µM
SMILES: COc1ccc(C(C)C)cc1C1=C(CN(Cc2cc(C(F)(F)F)cc(C(F)(F)F)c2)C2CCN(C(=O)OC3CCOCC3)CC2)CC(C)(C)CC1 [Compound 34, N-(3,5-Bis(trifluoromethyl)benzyl)-N-((2-(5-isopropyl-2-methoxyphenyl)-5,5-dimethylcyclohex-1-enyl)-methyl)piperidin-4-amine-1-methanoic acid tetrahydro-2H-pyran-4-ol ester]

- IC50 [6]: > 50 µM
SMILES: CCOC(=O)N1CC(N(CC2=C(c3cc(C(C)C)ccc3OC)CCC(C)(C)C2)Cc2cc(C(F)(F)F)cc(C(F)(F)F)c2)C1 [Compound 35, N-(3,5-Bis(trifluoromethyl)benzyl)-N-((5′-isopropyl-2′-methoxy-4,4-dimethyl-3,4,5,6-tetrahydro-[1,1′-biphenyl]-2-yl)methyl)azetidin-3-amine-1-methanoic acid ethyl ester]

- IC50 [6]: > 50 µM
SMILES: COc1ccc(C(C)C)cc1C1=C(CN(Cc2cc(C(F)(F)F)cc(C(F)(F)F)c2)C2CN(C(=O)OC(C)C)C2)CC(C)(C)CC1 [Compound 36, N-(3,5-Bis(trifluoromethyl)benzyl)-N-((5′-isopropyl-2′-methoxy-4,4-dimethyl-3,4,5,6-tetrahydro-[1,1′-biphenyl]-2-yl)methyl)azetidin-3-amine-1-methanoic acid isopropyl ester]

- IC50 [6]: > 50 µM
SMILES: COc1ccc(C(C)C)cc1C1=C(CN(Cc2cc(C(F)(F)F)cc(C(F)(F)F)c2)C2CN(C(=O)OC3CCOCC3)C2)CC(C)(C)CC1 [Compound 37, N-(3,5-Bis(trifluoromethyl)benzyl)-N-((5′-isopropyl-2′-methoxy-4,4-dimethyl-3,4,5,6-tetrahydro-[1,1′-biphenyl]-2-yl)methyl)azetidin-3-amine-1-methanoic acid tetrahydro-2H-pyran-4-ol ester]

- IC50 [6]: 0.81 ± 0.03 µM
SMILES: COc1ccc(C(C)C)cc1C1=C(CN(Cc2cc(C(F)(F)F)cc(C(F)(F)F)c2)c2nnn(C)n2)CC(C)(C)CC1 [Compound 40, N-(3,5-Bis(trifluoromethyl)benzyl)-N-((2-(5-isopropyl-2-methoxyphenyl)-5,5-dimethylcyclohex-1-enyl)-methyl)-2-methyl-2H-tetrazol-5-amine]

- IC50 [6]: 10.05 ± 0.06 µM
SMILES: COc1ccc(C(C)C)cc1C1=C(CN(Cc2cccc(C(F)(F)F)c2)c2nnn(C)n2)CC(C)(C)CC1 [Compound 41, N-((2-(5-Isopropyl-2-methoxyphenyl)-5,5-dimethylcyclohex-1-enyl)methyl)-2-methyl-N-(3-(trifluoromethyl)-benzyl)-2H-tetrazol-5-amine]

- CETP inhibition (in words) [6]: no CETP inhibition
- IC50 [6]: > 50 µM
SMILES: COc1ccc(C(C)C)cc1C1=C(CN(Cc2ccc(F)cc2)c2nnn(C)n2)CC(C)(C)CC1 [Compound 42, N-(4-Fluorobenzyl)-N-((2-(5-isopropyl-2-methoxyphenyl)-5,5-dimethylcyclohex-1-enyl)methyl)-2-methyl-2H-tetrazol-5-amine]

- CETP inhibition (in words) [6]: no CETP inhibition
- IC50 [6]: > 50 µM
SMILES: COc1ccc(C(C)C)cc1C1=C(CN(Cc2ccc(C(F)(F)F)cc2)c2nnn(C)n2)CC(C)(C)CC1 [Compound 43, N-((2-(5-Isopropyl-2-methoxyphenyl)-5,5-dimethylcyclohex-1-enyl)methyl)-2-methyl-N-(4-(trifluoromethyl)-benzyl)-2H-tetrazol-5-amine]

- CETP inhibition (in words) [6]: no CETP inhibition
- IC50 [6]: > 50 µM
SMILES: COc1ccc(C(C)C)cc1C1=C(CN(Cc2ccc(OC(F)(F)F)cc2)c2nnn(C)n2)CC(C)(C)CC1 [Compound 44, N-((2-(5-Isopropyl-2-methoxyphenyl)-5,5-dimethylcyclohex-1-enyl)methyl)-2-methyl-N-(4-(trifluoro-methoxy)benzyl)-2H-tetrazol-5-amine]

SMILES: CCC(CC)CC1(C(=O)Nc2ccccc2SC(=O)C(C)C)CCCCC1 [Dalcetrapib]
- effect on LDL-C levels [1]: minimal effect
- elevation of HDL-C levels [2]: up to 30%

SMILES: Cc1cc(C)c2c(c1)[C@@H](N(Cc1cc(C(F)(F)F)cc(C(F)(F)F)c1)c1nnn(C)n1)CCCN2C[C@H]1CC[C@H](C(=O)O)CC1 [Evacetrapib]
- decrease of LDL-C [1]: up to 36%
- raising of HDL-C levels [2]: more than 129%
